Patent US20060004051A1, “Compounds” (priority 2002, published 2006)

What was measured:
[1] = tested on: TGF-β signalling (PAI-1 promoter linked to firefly luciferase) in HepG2 cells; test: Cellular transcriptional assay (PAI-1 promoter luciferase reporter, TGF-β stimulated); conditions: for IC50: Homo sapiens, HepG2, read-out: TGF-β cellular activity (IC50)
Description: The assay was performed in HepG2 cells stably transfected with the PAI-1 promoter (known to be a strong TGF-β responsive promoter) linked to a luciferase (firefly) reporter gene. The compounds were selected on their ability to inhibit luciferase activity in cells exposed to TGF-β. In addition, cells were transfected with a second luciferase (Renilla) gene which was not driven by a TGF-β responsive promoter and was used as a toxicity control.
96 well microplates were seeded, using a multidrop apparatus, with the stably transfected cell line at a concentration of 35000 cells per well in 200 μl of serum-containing medium. These plates were placed in a cell incubator.
18 to 24 hours later (Day 2), cell-incubation procedure was launched. Cells were incubated with TGF-β and a candidate compound at concentrations in the range 50 nM to 10 μM (final concentration of DMSO 1%). The final concentration of TGF-β (rhTGFβ-1) used in the test was 1 ng/mL. […] The final volume of the test reaction was 150 μl. Each well contained only one candidate compound and its effect on the PAI-1 promoter was monitored.
Columns 11 and 12 were employed as controls. Column 11 contained 8 wells in which the cells were incubated in the presence of TGF-β, without a candidate compound. Column 11 was used to determine the ‘reference TGF-β induced firefly luciferase value’ against which values measured in the test wells (to quantify inhibitory activity) were compared. In wells A12 to D12, cells were grown in medium without TGF-β. […]
12 to 18 hours later (day 3), the luciferase quantification procedure was launched. […] Following agitation (15 to 30 mins), luciferase activities of the plates were read in a dual-injector luminometer (BMG lumistar). For this purpose, 50 μl of luciferase assay reagent and 50 μl of ‘Stop & Glo’ buffer were injected sequentially to quantify the activities of both luciferases. […] For each of the compounds tested, a concentration response curve was constructed from which an IC50 value was determined graphically.

[2] = target: T1, recombinant GST-ALK5 (residues 198-503) (Homo sapiens, UniProt P36897); test: Alk5 fluorescence polarization assay; type: binding; conditions: rhodamine green-labelled ligand 1 nM, ALK5 10 nM, read-out: ALK5 receptor modulator activity (IC50)
T1 construct: recombinant GST-ALK5 (residues 198-503)
T1 sequence (P36897 198-503): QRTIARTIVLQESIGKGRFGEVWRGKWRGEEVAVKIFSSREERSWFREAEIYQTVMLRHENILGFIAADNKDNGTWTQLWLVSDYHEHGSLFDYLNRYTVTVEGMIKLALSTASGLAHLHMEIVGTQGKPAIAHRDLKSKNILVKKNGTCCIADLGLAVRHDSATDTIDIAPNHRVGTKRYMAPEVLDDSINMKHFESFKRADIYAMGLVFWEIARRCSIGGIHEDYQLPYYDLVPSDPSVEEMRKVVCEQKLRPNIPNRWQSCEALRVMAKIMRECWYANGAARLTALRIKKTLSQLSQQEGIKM
Description: Assay 2 (Alk5 Fluorescence Polarization Assay)
Kinase inhibitor compounds conjugated to fluorophores, can be used as fluorescent ligands to monitor ATP competitive binding of other compounds to a given kinase. The increase in depolarization of plane polarized light, caused by release of the bound ligand into solution, is measured as a polarization/anisotropy value. This protocol details the use of a rhodamine green-labelled ligand for assays using recombinant GST-ALK5 (residues 198-503).
Assay buffer components: 62.5 mM Hepes pH 7.5 (Sigma H-4034), 1 mM DTT (Sigma D-0632), 12.5 mM MgCl2 (Sigma M-9272), 1.25 mM CHAPS (Sigma C-3023). […]
ALK5 was added to assay buffer containing the above components and 1 nM of the rhodamine green-labelled ligand so that the final ALK5 concentration was 10 nM based on active site titration of the enzyme. […] The plates were read immediately on a LJL Acquest fluorescence reader (Molecular Devices, serial number AQ1048) with excitation, emission, and dichroic filters of 485 nm, 530 nm, and 505 nm, respectively. The fluorescence polarization for each well was calculated by the Acquest reader and then imported into curve fitting software for construction of concentration response curves. The normalized response was determined relative to the high controls (1 μl DMSO in column 12, rows A-D) and the low controls (1 μl of control compound in column 12, rows E-H). […]

melting point [°C] | Structure (SMILES) | further results
 | O=C1C=CCC1 [CPO, Cyclopentenone, reference compound] | firefly and renilla luciferase activities (toxicity control) ([1]; 500 μM CPO with TGF-β, relative to TGF-β only): around 50%
246 | Nc1nc(-c2ccccn2)c(-c2ccnc(-c3ccc(N4CCOCC4)cc3)c2)s1 [Example 1] | 
236 to 238 | Cc1cccc(-c2nc(N)sc2-c2ccnc(-c3ccc(S(C)(=O)=O)cc3)c2)n1 [Example 2, 5-{2-[4-(methanesulfonyl)phenyl]pyridin-4-yl}-4-(6-methylpyridin-2-yl)-1,3-thiazol-2-amine] | 
230 to 232 | CCN1CCN(c2ccc(-c3cc(-c4sc(N)nc4-c4cccc(C)n4)ccn3)cc2)CC1 [Example 3] | IC50 [2]: 14 nM; IC50 [1]: 29 nM
250 to 252 | Cc1cccc(-c2nc(N)sc2-c2ccnc(-c3ccc(N4CCOCC4)cc3)c2)n1 [Example 4, 5-{2-[4-(morpholin-4-yl)phenyl]pyridinyl-4-yl}-4-(6-methylpyridin-2-yl)-1,3-thiazol-2-amine] | 
158 to 160 | Cc1cccc(-c2nc(N)sc2-c2ccnc(-c3ccc(C(=O)N4CCOCC4)cc3)c2)n1 [Example 5, 5-{2-[4-((morpholin-4-yl)carbonyl)phenyl]pyridin-4-yl]-4-(6-methylpyridin-2-y)-1,3-thiazol-2-amine] | 
230 to 232 | Cc1cccc(-c2nc(N)sc2-c2ccnc(-c3ccc(C(=O)NC4CCOCC4)cc3)c2)n1 [Example 6, 5-{2-[4((tetrahydropyran-4-yl)-aminocarbonyl)-phenyl]pyridin-4-yl}-4-(6-methylpyridin-2-yl)-1,3-thiazol-2-amine] | 
190 to 192 | Cc1cccc(-c2nc(N)sc2-c2ccnc(-c3ccc(CN4CCOCC4)cc3)c2)n1 [Example 7, 5-{2-[4-((morpholin-4-yl)methyl)phenyl]pyridin-4-yl}-4-(6-methylpyridin-2-yl)-1,3-thiazol-2-amine] | 
188 to 190 | COc1ccc(-c2cc(-c3sc(N)nc3-c3cccc(C)n3)ccn2)cc1 [Example 8, 5-{2-[4methoxyphenyl]pyridin-4-yl}-4-(6methylpyridin-2-yl)-1,3-thiazol-2-amine] | 
222 to 224 | Cc1cccc(-c2nc(N)sc2-c2ccnc(-c3ccc(OC(F)(F)F)cc3)c2)n1 [Example 9, 5-{2-[4-trifluoromethoxyphenyl]pyridin-4-yl}-4-(6-methylpyridin-2-yl)-1,3-thiazol-2-amine] | 
176 to 178 | Cc1cccc(-c2nc(N)sc2-c2ccnc(-c3ccc(OCCN4CCCC4)cc3)c2)n1 [Example 11, 5-{2-[4-(2-(pyrrolidin-1-yl)-ethoxy)-phenyl]pyridin-4-yl}-4-(6-methylpyridin-2-yl)-1,3-thiazol-2-amine] | 
226 to 228 | Cc1cccc(-c2nc(N)sc2-c2ccnc(-c3ccc(OCc4cn(C)cn4)cc3)c2)n1 [Example 12, 5-{2-[4-((1-methyl-imidazol-4-yl)methyloxy)-phenyl]pyridin-4-yl}-4-(6-methylpyridin-2-yl)-1,3-thiazol-2-amine] | 
222 | Cc1cccc(-c2sc(N)nc2-c2ccnc(-c3ccc(Cl)cc3)c2)n1 [Example 13, 4-[2-(4-chlorophenyl)pyridin-4-yl]-5-(6-methylpyridin-2-yl]-1,3-thiazol-2-amine] | 
232 | Cc1cccc(-c2sc(N)nc2-c2ccnc(-c3ccc(OC(F)(F)F)cc3)c2)n1 [Example 14, 4-[2-(4-trifluoromethoxyphenyl)pyridin-4-yl]-5-[6-methylpyridin-2-yl]-1,3-thiazol-2-amine] | 
246 | Cc1cccc(-c2sc(N)nc2-c2ccnc(-c3ccc(C(=O)N4CCOCC4)cc3)c2)n1 [Example 17] | 
224 | CCN1CCN(C(=O)c2ccc(-c3cc(-c4nc(N)sc4-c4cccc(C)n4)ccn3)cc2)CC1 [Example 18] | 
236 | Cc1cccc(-c2sc(N)nc2-c2ccnc(-c3ccc(CN4CCOCC4)cc3)c2)n1 [Example 19, 4-[2-(4-((morpholin-4-yl)methyl)phenyl)pyridin-4-yl]-5-[6-methylpyridin-2-yl]-1,3-thiazol-2-amine] | 
246 | Cc1cccc(-c2sc(N)nc2-c2ccnc(-c3ccc(N4CCOCC4)cc3)c2)n1 [Example 20, 4-[2-(4-(morpholin-4-yl)phenyl)pyridin-4-yl]-5-[6-methylpyridin-2-yl]-1,3-thiazol-2-amine] | 
150 | Cc1cccc(-c2sc(N)nc2-c2ccnc(-c3ccc(OCCN4CCCC4)cc3)c2)n1 [Example 21, 4-[2-(4-(2-(pyrolidin-1-yl)-ethoxy)phenyl)pyridin-4-yl]-5-[6-methylpyridin-2-yl]-1,3-thiazol-2-amine] | 
191 | Cc1cccc(-c2sc(N)nc2-c2ccnc(-c3ccc(OCC(N)=O)cc3)c2)n1 [Example 22, 4-[2-(4-(aminocarbonylmethyloxy)phenyl)pyridin-4-yl]-5-[6-methylpyridin-2-yl]-1,3-thiazol-2-amine] | 
172 | Cc1cccc(-c2sc(N)nc2-c2ccnc(-c3ccc(OCC(=O)N4CCOCC4)cc3)c2)n1 [Example 23, 4-[2-(4-((morpholin-4-yl)carbonylmethyloxy)phenyl)pyridin-4-yl]-5-[6-methylpyridin-2-yl]-1,3-thiazol-2-amine] | 
200 | Cc1cccc(-c2sc(N)nc2-c2ccnc(-c3ccc(CN4CCCC4)cc3)c2)n1 [Example 24, 4-[2-(4-((pyrrolidin-1-yl)methyl)phenyl)pyridin-4-yl]-5-[6-methylpyridin-2-yl]-1,3-thiazol-2-amine] | 
210 | Cc1cccc(-c2sc(N)nc2-c2ccnc(-c3ccc(CN(C)C)cc3)c2)n1 [Example 25, 4-[2-(4-((dimethylamino)methyl)phenyl)pyridin-4-yl]-5-[6-methylpyridin-2-yl]-1,3-thiazol-2-amine] | IC50 [2]: 29 nM; IC50 [1]: 31 nM
268 | Nc1nc(-c2ccnc(-c3ccc(C(=O)NC4CCOCC4)cc3)c2)c(-c2ccccn2)s1 [Example 26, 4-[2-(4-((tetrahydropyran-4-yl)aminocarbonyl)phenyl)pyridin-4-yl]-5-[pyridin-2-yl]-1,3-thiazol-2-amine] | 
276 | Nc1nc(-c2ccnc(-c3ccc(N4CCOCC4)cc3)c2)c(-c2ccccn2)s1 [Example 27, 4-[2-(4-(morpholin-4-yl)phenyl)pyridin-4-yl]-5-[pyridin-2-yl]-1,3-thiazol-2-amine] | 
